# Results reported in patent US9663562B2, “Compositions and methods for treating cancer” (Dana-Farber Cancer Institute, Inc., priority 2013, dated 2017).
# Tests used:
# Format in all cases: cell-based, human
# [1] = test system: MUC16-positive OVCAR3 ovarian cancer cells; test: Viable cell number by trypan blue staining, OVCAR3 cells; conditions: OVCAR3, 5 microM, 5 days, vs control
# Procedure: (§1) FIG. 1 illustrates the Effects of MUC16 Inhibitor Peptide (IP-16) on MUC16-positive cancer cells. Human MUC16-positive OVCAR3 ovarian cancer (A), MIAPACA2 pancreatic cancer (B) and ASPC1 pancreatic cancer (C) cells were left untreated (Control) or treated with 5 microM IP-16(RRRRRRRR-CLICGVLVTTRRRKK; SEQ ID NO:5) or CP-16 (RRRRRRRR-ALIAGVLVTTRRRKK; SEQ ID NO:6) for 5 days. Viable cell number was determined by trypan blue staining. The results are expressed as cell number (mean+SD of three determinations).
# (§2) Viable cell number was determined by trypan blue staining.
# [2] = test system: MUC16-positive MIAPACA2 pancreatic cancer cells; test: Viable cell number by trypan blue staining, MIAPACA2 cells; conditions: MIAPACA2, 5 microM, 5 days, vs control
# Procedure: as §1, §2
# [3] = test system: MUC16-positive ASPC1 pancreatic cancer cells; test: Viable cell number by trypan blue staining, ASPC1 cells; conditions: ASPC1, 5 microM, 5 days, vs control
# Procedure: as §1, §2
# [4] = test system: MUC16-negative HEK293T cells; test: Growth of MUC16-negative control cells
substance,measurement,setting,value
RRRRRRRR-CLICGVLVTTRRRKK (RRRRRRRRCLICGVLVTTRRRKK) [IP-16],cell number (viable cells),[1],significantly reduced
same,cell number (viable cells),[2],significantly reduced
same,cell number (viable cells),[3],significantly reduced
same,effect on growth,[4],"little, if any, effect"
